From patent US20080003215A1, “Use of pre-dissolved pristinamycin-type and polyether ionophore type antimicrobial agents in the production of ethanol” (priority 2006, published 2008)
Blank lines part the entries; values can stand above or below the compound they belong to.

Columns and labels:
Yeast #1 = assay: Solvent compatibility with yeast corn mash fermentation, Yeast #1; settings: Yeast #1, corn mash
Method: (§1) Dialkylsulfoxides and alkyl pyrrolidones, where the alkyl groups are independently C1 to C4, are particularly preferred. Dimethylsulfoxide (DMSO) and N-Methyl-2-Pyrrolidone (M-Pyrol or NMP) compatibility with yeast corn mash fermentations were evaluated with two yeasts (Yeast#1 and Yeast#2) commercially used in the fuel ethanol industry. Concentrations of 0 to 1200 ppm of either solvent were added at the beginning of dry-milled corn-mash fermentations along with either yeast.
(§2) Sterile saccharified 26% wt. %/v corn mash was prepared using substantially the same procedure described in Example 2. To each of 6 pre-sterilized Celstir™ fermentors (Wheaton Instruments, Millville, N.J.), 500 g sterile mash was aseptically added. The fermentors were temperature controlled to 32° C. using circulating water baths (Haake D8;G, Berlin, Germany) to pump water through the jackets of the Celstir fermentors. Magnetic stirrers (IKA-Lavortechnik, Staufen, Germany) were used to mix the fermentors at approximately 200 RPM. […] Then, to each fermentator was added 1) 1 ml of 0.2 μm filter-sterilized Urea stock solution (8 mM urea in fermentors); 2) 1 ml filter sterilized aqueous DMSO (Gaylord Chemical, CAS#67-68-5) or aqueous M-Pyrol (ISP, CAS#872-50-) solutions; and 3) 1.027 g Yeast#1 or Yeast#2 commercial active dry yeasts in 18 ml sterile water.
Samples (22 ml) were taken at 0, 6, 12, 24, 36, and 48 h and placed on ice to prevent growth. An 11 ml aliquot of each sample was serially diluted in 0.1% w/v sterile peptone water, and microbiologically plated onto MRS agar plates in duplicate. All plates were incubated for 48 h at 30° C. in an anaerobic CO2 incubation chamber, and manually enumerated for viable Lactobacilli. The remaining 11 ml aliquot of each sample was centrifuged (10K RPM, 4° C., 20 minutes) in a Sorvall RC-5C centrifuge. The liquid supernatant was then passed through a 0.2 μm membrane filter to remove any particulates and frozen for future analysis. Lactic acid, glycerol, ethanol, acetic acid, and glucose concentrations were determined by HPLC analysis. The samples were thawed and diluted to the required extent with Milli-Q water. Aliquots of the diluted samples (100 μl) were each mixed with an equal volume of 2% w/v boric acid (internal standard), and injected into a Biorad HPX-87H Aminex™ column equilibrated at 40° C. The eluent was 5 mM sulfuric acid flowing at a rate of 0.7 ml/min. The components were detected by a differential refractometer (Model 4210, Waters Chromatographic Division, Milford, Mass.) and the subsequent data processed by the supplied Waters Millenium32 software. All fermentations were performed in duplicate.

Yeast #2 = assay: Solvent compatibility with yeast corn mash fermentation, Yeast #2
Method: as §1, §2
Samples (22 ml) were taken at 0, 6, 12, 24, 36, and 48 h and placed on ice to prevent growth. An 11 ml aliquot of each sample was serially diluted in 0.1% w/v sterile peptone water, and microbiologically plated onto MRS agar plates in duplicate. All plates were incubated for 48 h at 30° C. in an anaerobic CO2 incubation chamber, and manually enumerated for viable Lactobacilli. […] Lactic acid, glycerol, ethanol, acetic acid, and glucose concentrations were determined by HPLC analysis. […] The components were detected by a differential refractometer (Model 4210, Waters Chromatographic Division, Milford, Mass.) and the subsequent data processed by the supplied Waters Millenium32 software. […]

humans = settings: cited from earlier work

Ethanol production (inhibition) (Yeast #1; 0 to 1200 ppm solvent): did not inhibit ethanol production
Structure (SMILES): C[S+](C)[O-] [DMSO, Dimethylsulfoxide]
Yeast viability and stress (glycerol) (Yeast #1; 1000 ppm solvent, 48 hours of exposure): does not appear to affect the viability of Yeast #1 or stress Yeast #1
Yeast performance (viability, glycerol, ethanol) (Yeast #2; Yeast #2, corn mash, 0 to 1200 ppm solvent): no adverse effect on yeast performance

Ethanol production (Yeast #1; 1000 ppm solvent (control 8.1%)): 7.8%
Ethanol production (Yeast #2; Yeast #2, corn mash, 1000 ppm solvent, 48 hours (control 10%)): 9.1%
Structure (SMILES): CN1CCCC1=O [NMP, N-Methyl-2-Pyrrolidone]
Yeast viability (Yeast #1; solvent concentrations above 400 ppm): slight decline in yeast viability
Ethanol concentration trend (Yeast #2; Yeast #2, solvent concentrations >400 ppm): consistent trend towards lower concentrations of ethanol

Structure (SMILES): CCCCOC(=O)C(C)O (stereo not drawn) [n-butyl lactate]
Toxic concentration in air (humans; humans, in air): about 4 ppm
Toxicity classification (humans; intraperitoneal route): classified as a poison by intraperitoneal route
